Among the data in patent US6559142B2, “Sulfonamide matrix metalloproteinase inhibitors” (Warner-Lambert Company, priority 2001, dated 2003) are IC50 values, retold here.

Broadly, the IC50 is the concentration that inhibits the measured activity by half. Lower therefore signals greater potency.

What all share (type): biochemical
Experiment [1] deals with MMP-3CD (catalytic domain of stromelysin-1) (Homo sapiens, UniProt P08254). The experiment can be described thus: Thiopeptolide hydrolysis inhibition assay, MMP-3CD. To be noted: thiopeptolide substrate, MES buffer pH 6.0. An excerpt: (§1) The assays measure the amount by which a test compound reduces the hydrolysis of a thiopeptolide substrate catalyzed by a matrix metalloproteinase enzyme. Such assays are described in detail by Ye et al., Biochemistry, 1992;31(45):11231-11235, hereby incorporated herein by reference.
(§2) Thiopeptolide substrates show virtually no decomposition or hydrolysis at or below neutral pH in the absence of a matrix metalloproteinase enzyme. A typical thiopeptolide substrate commonly utilized for assays is Ac-Pro-Leu-Gly-thioester-Leu-Leu-Gly-OEt. A 100 μL assay mixture will contain 50 mM of N-2-hydroxyethylpiperazine-N′-2-ethanesulfonic acid buffer (“HEPES”) at pH 7.0, 10 mM CaCl2, 100 μM thiopeptolide substrate, and 1 mM 5,5′-dithio-bis-(2-nitrobenzoic acid) (DTNB). The thiopeptolide substrate concentration may be varied from, for example, 10 to 800 μM, in order to obtain Km and Kcat values. The change in absorbance at 405 nm is monitored on a Thermo Max microplate reader (Molecular Devices, Menlo Park, Calif.) at room temperature (22° C.). The calculation of the amount of hydrolysis of the thiopeptolide substrate is based on E412=13600 M^−1 cm^−1 for the DTNB-derived product 3-carboxy-4-nitrothiophenoxide. Assays are carried out with and without matrix metalloproteinase inhibitor compounds, and the amount of hydrolysis is compared for a determination of inhibitory activity of the test compounds.
It should be appreciated that the assay buffer used with MMP-3CD is 50 mM of N-morpholinoethanesulfonate (“MES”) at pH 6.0 rather than the HEPES buffer at pH 7.0 described above.
(§3) Several representative compounds have been evaluated for their ability to inhibit various matrix metalloproteinase enzymes. In Table 1, MMP-1FL refers to full-length interstitial collagenase; MMP-2FL refers to full-length Gelatinase A; MMP-3CD refers to the catalytic domain of stromelysin-1; MMP-7FL refers to full-length matrilysin; MMP-9FL refers to full-length Gelatinase B; MMP-13CD refers to the catalytic domain of collagenase 3; and MMP-14CD refers to the catalytic domain of MMP-14. Test compounds were evaluated at various concentrations, in order to determine their respective IC50 values, the micromolar concentration of compound required to cause a 50% inhibition of the catalytic activity of the respective enzyme.

Experiment [2] deals with T1, MMP-2FL (full-length Gelatinase A) (Homo sapiens, UniProt P08253).
T1 sequence (P08253 110-660): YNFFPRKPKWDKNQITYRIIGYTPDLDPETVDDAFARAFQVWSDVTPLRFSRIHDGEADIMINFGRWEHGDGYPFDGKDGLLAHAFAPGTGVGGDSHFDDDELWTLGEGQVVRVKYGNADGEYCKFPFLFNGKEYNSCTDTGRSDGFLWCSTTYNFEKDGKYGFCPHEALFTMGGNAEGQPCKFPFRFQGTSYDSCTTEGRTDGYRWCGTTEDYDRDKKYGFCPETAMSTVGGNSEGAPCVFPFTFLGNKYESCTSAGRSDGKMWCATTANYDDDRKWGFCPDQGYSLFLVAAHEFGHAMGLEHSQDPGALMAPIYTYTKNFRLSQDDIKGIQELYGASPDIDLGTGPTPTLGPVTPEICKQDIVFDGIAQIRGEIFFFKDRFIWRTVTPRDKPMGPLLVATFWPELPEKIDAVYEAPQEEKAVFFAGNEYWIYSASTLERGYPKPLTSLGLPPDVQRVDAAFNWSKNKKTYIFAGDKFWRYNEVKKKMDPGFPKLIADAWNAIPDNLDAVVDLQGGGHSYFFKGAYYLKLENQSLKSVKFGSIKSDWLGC
The experiment can be described thus: Thiopeptolide hydrolysis inhibition assay, MMP-2FL. Conditions: thiopeptolide substrate, HEPES pH 7.0, 22° C.
From the text: as §1, §2, §3

The target in experiment [3] is T2, MMP-7FL (full-length matrilysin) (Homo sapiens, UniProt P09237).
T2 sequence (P09237 95-267): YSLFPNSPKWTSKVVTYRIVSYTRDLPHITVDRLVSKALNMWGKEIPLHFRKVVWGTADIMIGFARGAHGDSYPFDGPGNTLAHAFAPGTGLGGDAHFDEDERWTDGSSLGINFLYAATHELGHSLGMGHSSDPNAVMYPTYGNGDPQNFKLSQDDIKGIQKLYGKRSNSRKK
The experiment in a line: Thiopeptolide hydrolysis inhibition assay, MMP-7FL. To be noted: thiopeptolide substrate, HEPES pH 7.0, 22° C.
From the text: as §1, §2, §3

Experiment [4] deals with MMP-13CD (catalytic domain of collagenase 3) (Homo sapiens, UniProt P45452). The experiment in a line: Thiopeptolide hydrolysis inhibition assay, MMP-13CD. Conditions: thiopeptolide substrate, HEPES pH 7.0, 22° C.
From the text: as §1, §2, §3

Experiment [5] has as its target T3, MMP-1FL (full-length interstitial collagenase) (Homo sapiens, UniProt P03956).
T3 sequence (P03956 100-469): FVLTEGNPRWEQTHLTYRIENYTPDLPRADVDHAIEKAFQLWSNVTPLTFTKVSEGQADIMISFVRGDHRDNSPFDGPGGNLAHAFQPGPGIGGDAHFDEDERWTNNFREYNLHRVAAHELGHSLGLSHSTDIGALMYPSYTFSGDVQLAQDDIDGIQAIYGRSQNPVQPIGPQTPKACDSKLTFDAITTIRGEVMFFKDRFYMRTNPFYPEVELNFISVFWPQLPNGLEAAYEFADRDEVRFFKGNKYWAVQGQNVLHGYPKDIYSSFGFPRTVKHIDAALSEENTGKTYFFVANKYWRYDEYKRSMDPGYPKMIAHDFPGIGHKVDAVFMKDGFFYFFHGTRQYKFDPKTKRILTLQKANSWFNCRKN
The experiment in a line: Thiopeptolide hydrolysis inhibition assay, MMP-1FL. To be noted: thiopeptolide substrate, HEPES pH 7.0, 22° C.
From the text: as §1, §2, §3

Experiment [6] has as its target MMP-9FL (full-length Gelatinase B) (Homo sapiens, UniProt P14780). The experiment in a line: Thiopeptolide hydrolysis inhibition assay, MMP-9FL. Conditions: thiopeptolide substrate, HEPES pH 7.0, 22° C.
From the text: as §1, §2, §3

In experiment [7] the target is MMP-14CD (catalytic domain of MMP-14) (Homo sapiens, UniProt P50281). The experiment in a line: Thiopeptolide hydrolysis inhibition assay, MMP-14CD. To be noted: thiopeptolide substrate, HEPES pH 7.0, 22° C.
From the text: as §1, §2, §3

Chain of MMP-3CD (catalytic domain of stromelysin-1) (P08254 100-272 limits assumed): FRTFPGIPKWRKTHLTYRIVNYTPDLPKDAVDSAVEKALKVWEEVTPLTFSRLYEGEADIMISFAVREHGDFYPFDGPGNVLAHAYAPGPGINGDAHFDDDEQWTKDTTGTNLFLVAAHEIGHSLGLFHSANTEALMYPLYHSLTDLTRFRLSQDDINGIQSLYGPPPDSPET
Chain of MMP-9FL (full-length Gelatinase B) (P14780 94-707, species assumed): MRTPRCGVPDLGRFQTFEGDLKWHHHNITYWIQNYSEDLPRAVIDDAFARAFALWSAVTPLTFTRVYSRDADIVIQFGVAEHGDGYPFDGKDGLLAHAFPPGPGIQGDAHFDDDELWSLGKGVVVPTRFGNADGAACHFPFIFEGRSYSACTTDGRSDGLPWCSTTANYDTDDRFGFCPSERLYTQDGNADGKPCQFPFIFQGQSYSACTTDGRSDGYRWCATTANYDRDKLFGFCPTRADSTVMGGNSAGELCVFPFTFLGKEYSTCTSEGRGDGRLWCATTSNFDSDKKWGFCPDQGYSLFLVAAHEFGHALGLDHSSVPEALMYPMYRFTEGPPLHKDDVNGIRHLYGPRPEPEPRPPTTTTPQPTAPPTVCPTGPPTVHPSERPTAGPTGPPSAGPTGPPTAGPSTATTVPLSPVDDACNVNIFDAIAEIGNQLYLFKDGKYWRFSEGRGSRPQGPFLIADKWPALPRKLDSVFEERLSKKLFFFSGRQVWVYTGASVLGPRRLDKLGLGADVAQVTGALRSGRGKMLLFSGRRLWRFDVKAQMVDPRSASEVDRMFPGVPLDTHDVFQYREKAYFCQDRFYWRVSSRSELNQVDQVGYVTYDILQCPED

For the compound `CC1(C)SCCN(S(=O)(=O)c2ccc3c(c2)oc2ccccc23)[C@H]1C(=O)O` [Example 1, (S)-4-(Dibenzofuran-3-sulfonyl)-2,2-dimethyl-thiomorpholine-3-carboxylic Acid], the IC50 in experiment [1] was 41 nM; in experiment [2] it was 74 nM; in experiment [3] it was 55000 nM; in experiment [4], 970 nM; in experiment [5], 1420 nM; in experiment [6], 22500 nM. The IC50 in experiment [7] was 64 nM.
As to `CC1(C)SCCN(S(=O)(=O)c2ccc3c(c2)oc2ccccc23)[C@H]1C(=O)NO` [Example 2, (S)-4-(Dibenzofuran-3-sulfonyl)-2,2-dimethyl-thiomorpholine-3-carboxylic Acid Hydroxyamide], the IC50 in experiment [1] stood at 11 nM; in experiment [2] it was 15 nM; in experiment [3] it was 200 nM; in experiment [4], 4 nM; in experiment [5], 13 nM; in experiment [6], 210 nM. The same compound showed an IC50 in experiment [7] of 26 nM.
Consider `CC1(C)SCN(S(=O)(=O)c2ccc3c(c2)oc2ccccc23)[C@@H]1C(=O)O` [Example 3, R-3-(Dibenzofuran-3-sulfonyl)-5,5-dimethyl-thiazolidine-4-carboxylic Acid], for which the IC50 came out at 2500 nM in experiment [1]; 9500 nM in experiment [2]; 100000 nM in experiment [3]; 23000 nM in experiment [4]; 100000 nM in experiment [5]; 150000 nM in experiment [6]. In experiment [7], inhibition was half-maximal at 10000 nM (IC50).
Take `CC1(C)SCN(S(=O)(=O)c2ccc3c(c2)oc2ccccc23)[C@@H]1C(=O)NO` [Example 4, R-3-(Dibenzofuran-3-sulfonyl)-5,5-dimethyl-thiazolidine-4-carboxylic Acid Hydroxyamide]: the IC50 was 3200 nM in experiment [1]; 3900 nM in experiment [2]; 59000 nM in experiment [3]; 1400 nM in experiment [4]; 6900 nM in experiment [5]; 18000 nM in experiment [6]. In experiment [7], the IC50 was 11000 nM.
With `CC1(C)SCCN(S(=O)(=O)c2ccc3c(c2)Cc2ccccc2-3)[C@H]1C(=O)O` [Example 5, (S)-4-(9H-Fluorene-2-sulfonyl)-2,2-dimethyl-thiomorpholine-3-carboxylic Acid], the IC50 in experiment [1] was 130 nM; in experiment [2], 500 nM; in experiment [3], 100000 nM; in experiment [4], 5100 nM; in experiment [5] it was 23000 nM; in experiment [6], 100000 nM. Also, in experiment [7], inhibition was half-maximal at 840 nM (IC50).
In the case of `CC1(C)SCCN(S(=O)(=O)c2ccc3c(c2)Cc2ccccc2-3)[C@H]1C(=O)NO` [Example 6, (S)-4-(9H-Fluorene-2-sulfonyl)-2,2-dimethyl-thiomorpholine-3-carboxylic Acid Hydroxyamide], the IC50 in experiment [1] came to 8 nM; in experiment [2], 24 nM; in experiment [3] it was 880 nM; in experiment [4], 4 nM; in experiment [5], 140 nM; in experiment [6], 550 nM. Besides, in experiment [7], the IC50 came to 63 nM.
Consider `CC1(C)SCCN(S(=O)(=O)c2ccc3oc4ccccc4c3c2)[C@H]1C(=O)O` [Example 7, (S)-4-(Dibenzofuran-2-sulfonyl)-2,2-dimethyl-thiomorpholine-3-carboxylic Acid], for which the IC50 stood at 210 nM in experiment [1]; 3900 nM in experiment [2]; 16000 nM in experiment [3]; 11000 nM in experiment [4]; 59000 nM in experiment [5]; 100000 nM in experiment [6]. In experiment [7], this compound displayed an IC50 of 4000 nM.
In the case of `CC1(C)SCCN(S(=O)(=O)c2ccc3oc4ccccc4c3c2)[C@H]1C(=O)NO` [Example 8, (S)-4-(Dibenzofuran-2-sulfonyl)-2,2-dimethyl-thiomorpholine-3-carboxylic Acid Hydroxyamide], the IC50 in experiment [1] is 9 nM; in experiment [2], 15 nM; in experiment [3], 28 nM; in experiment [4], 3 nM; in experiment [5] it was 17 nM; in experiment [6], 260 nM. The IC50 in experiment [7] was 40 nM.
With `CC1(C)SCCN(S(=O)(=O)c2ccc3oc4cc(Br)ccc4c3c2)[C@H]1C(=O)O` [Example 9, (S)-4-(7-Bromo-dibenzofuran-2-sulfonyl)-2,2-dimethyl-thiomorpholine-3-carboxylic Acid], the IC50 in experiment [1] is 20 nM; in experiment [2] it was 4000 nM; in experiment [3], 1200 nM; in experiment [4], 920 nM; in experiment [5], 70000 nM; in experiment [6], 65000 nM. The compound further returned an IC50 in experiment [7] of 3800 nM.
With `CC1(C)SCCN(S(=O)(=O)c2ccc3oc4cc(Br)ccc4c3c2)[C@H]1C(=O)NO` [Example 10, (S)-4-(7-Bromo-dibenzofuran-2-sulfonyl)-2,2-dimethyl-thiomorpholine-3-carboxylic Acid Hydroxyamide], the IC50 was found to be 4 nM in experiment [1]; 7 nM in experiment [2]; 31 nM in experiment [3]; 2 nM in experiment [4]; 42 nM in experiment [5]; 66 nM in experiment [6]. Half-maximal inhibition in experiment [7] (IC50) required 12 nM.
For `COC(=O)c1ccc2c(c1)oc1ccc(S(=O)(=O)N3CCSC(C)(C)[C@@H]3C(=O)O)cc12` [Example 11, (S)-4-(7-Methoxycarbonyl-dibenzofuran-2-sulfonyl)-2,2-dimethyl-thiomorpholine-3-carboxylic Acid], the IC50 in experiment [1] amounted to 94 nM; in experiment [2] it was 5200 nM; in experiment [3] it was 3500 nM; in experiment [4], 4600 nM; in experiment [5], 100000 nM; in experiment [6], 69000 nM. Besides, the IC50 in experiment [7] is 20000 nM.
Regarding `COC(=O)c1ccc2c(c1)oc1ccc(S(=O)(=O)N3CCSC(C)(C)[C@@H]3C(=O)NO)cc12` [Example 12, (S)-4-(7-Methoxycarbonyl-dibenzofuran-2-sulfonyl)-2,2-dimethyl-thiomorpholine-3-carboxylic Acid Hydroxyamide], the IC50 in experiment [1] came out at 6 nM; in experiment [2], 17 nM; in experiment [3], 29 nM; in experiment [4], 5 nM; in experiment [5], 150 nM; in experiment [6], 47 nM. In experiment [7], this compound returned an IC50 of 95 nM.
